Data from the NIST ThermoML archive (doi:10.1021/je0600552).
± gives the expanded uncertainty stated by the source.

How the values were obtained:
[1] = Crystal; DTA
[2] = Molar enthalpy of transition or fusion; conditions: Crystal; DSC

Normal melting temperature [1]: 195.30 ± 0.9 °C | Molar enthalpy of transition or fusion [2]: 6.43 ± 0.143 kcal/mol
Compound: Cc1ccc2[nH]c3c(c2c1)CCCC3=O [1-keto-1,2,3,4-tetrahydro-6-methylcarbazole]
